Drawing on ChEMBL document CHEMBL1124229, “Spiro hydantoin aldose reductase inhibitors” (J Med Chem, 1988), this text covers IC50, ED50 and pKa for 35 compounds.

The target in data set [1] is T1, Aldo-keto reductase family 1 member B1 (Bos taurus, UniProt P16116). The data set is described as follows: In vitro inhibitory activity towards partially purified calf lens aldose reductase; value ranges from 10E-6 - 10E-7.
Data set [2] is filed under the species Rattus norvegicus. The data set is described as follows: Ability to cause 50% reduction in sorbitol levels of sciatic nerve of streptozotocinized rats was determined. Format: functional.
For data set [3], the target named is T1, Aldo-keto reductase family 1 member B1. The experiment in a line: In vitro inhibition of partially purified calf lens aldose reductase; value ranges from 10E-5 to 10E-6.
Data set [4] has the same target. The data set is described as follows: In vitro inhibition of partially purified calf lens aldose reductase.
Data set [5] is filed under the species Rattus norvegicus. The data set is described as follows: Ability to cause 50% reduction in sorbitol levels of sciatic nerve of streptozotocinized rats was determined; value ranges from 0.25-0.75. In kind it is functional.
Data set [6] has as its target T1, Aldo-keto reductase family 1 member B1. The experiment in a line: In vitro inhibitory activity towards partially purified calf lens aldose reductase; value ranges from 10E-4 - 10E-6.
Data set [7] is described as follows: pKa in DMF/H2O was measured. Format: physicochemical.
The species named for data set [8] is Rattus norvegicus. The experiment in a line: 50% reduction in sorbitol accumulation in isolated sciatic nerves incubated in the presence of high glucose concentration; value ranges from 10E-2 - 10E-3. In kind it is functional. To be noted: Sciatic nerve.
The species named for data set [9] is Rattus norvegicus. The experiment in a line: Dose causing 50% reduction in sorbitol accumulation in sciatic nerves of streptozotocinized rats, (tid).
Data set [10] has as its target T1, Aldo-keto reductase family 1 member B1. The data set is described as follows: Inhibition of partially purified calf lens aldose reductase; value ranges from 10E-4 to 10e-5 M.
Data set [11] is filed under the species Rattus norvegicus. The data set is described as follows: Ability to cause 50% reduction in sorbitol levels of sciatic nerve of streptozotocinized rats was determined; value ranges from 10-25. Format: functional.
For data set [12], the species on record is Rattus norvegicus. The data set is described as follows: Ability to cause 50% reduction in sorbitol levels of sciatic nerve of streptozotocinized rats was determined; value ranges from 5-10. Format: functional.
Data set [13] deals with Aldo-keto reductase family 1 member B1 (Homo sapiens, UniProt P15121). The data set is described as follows: In vitro inhibitory activity towards partially purified human placenta aldose reductase.
Data set [14] is filed under the species Rattus norvegicus. The experiment in a line: 50% reduction in sorbitol accumulation in isolated sciatic nerves incubated in the presence of high glucose concentration. To be noted: Sciatic nerve. Format: functional.
Data set [15] deals with Aldo-keto reductase family 1 member B1 (Rattus norvegicus, UniProt P07943). The experiment in a line: In vitro inhibitory activity towards partially purified rat lens aldose reductase.
The species named for data set [16] is Rattus norvegicus. The data set is described as follows: Ability to cause 50% reduction in sorbitol levels of sciatic nerve of streptozotocinized rats was determined; value ranges from 250-500. Format: functional.
Data set [17] has as its target T1, Aldo-keto reductase family 1 member B1. The experiment in a line: In vitro inhibitory activity towards partially purified calf lens aldose reductase; value ranges from 10E-4- 10E-5.
The species named for data set [18] is Rattus norvegicus. The data set is described as follows: Ability to cause 50% reduction in sorbitol levels of sciatic nerve of streptozotocinized rats was determined; value ranges from 1.5-10. In kind it is functional.
The species entered for data set [19] is Rattus norvegicus. The data set is described as follows: Ability to cause 50% reduction in sorbitol levels of sciatic nerve of streptozotocinized rats was determined; value ranges from 1.5-5. Format: functional.
For data set [20], the species on record is Rattus norvegicus. The experiment in a line: Ability to cause 50% reduction in sorbitol levels of sciatic nerve of streptozotocinized rats was determined; value ranges from 2.5-5. Format: functional.
For data set [21], the species on record is Rattus norvegicus. The experiment in a line: Ability to cause 50% reduction in sorbitol levels of sciatic nerve of streptozotocinized rats was determined; value ranges from 25-100. Format: functional.
Setting [22] is: Rattus norvegicus, Sciatic nerve, read-out: ED50.

The IC50 is the midpoint of a concentration-inhibition curve. As for `O=C1NC(=O)C2(CCSc3ccc(Cl)cc32)N1` (stereo not drawn), it took 1 µM to reach half-maximal inhibition in data set [1] (IC50). The ED50 in data set [2] (setting [22]) was 2.5 mg/kg.

On to `O=C(O)CC1(CC(=O)O)CCCC1`, for which the concentration for half-maximal inhibition (IC50) in data set [3] came out at 10 µM; in data set [1], 1 µM. Moreover, the ED50 in data set [2] (setting [22]) is ~500 mg/kg.

With `O=C1NC(=O)C2(CCOc3ccc(Cl)cc32)N1` (stereo not drawn), the IC50 in data set [4] came to 0.1 µM. The same compound had an ED50 in [5] of 0.25 mg/kg.

In the case of `Cc1ccc2c(c1)C1(CCO2)NC(=O)NC1=O` (stereo not drawn), the IC50 in data set [3] was 10 µM. Besides, in data set [2] (setting [22]), the ED50 is 5 mg/kg.

Consider `O=C1NC(=O)C2(CCc3cc4c(cc32)OCO4)N1` (stereo not drawn), for which the IC50 in data set [3] turned out to be 10 µM. Also, the ED50 in [2] (setting [22]) was > 5 mg/kg.

Take `O=C(O)C1CCOc2ccc(F)cc21` (stereo not drawn): in data set [6], inhibition was half-maximal at 100 µM (IC50). Also, the ED50 in data set [2] (setting [22]) is > 25 mg/kg.

As a reminder, the pKa is the pH at which an ionisable group is half protonated. High values mean a weaker acid or stronger base, low ones a stronger acid or weaker base. With `O=C(O)C1CCOc2ccc(Cl)cc21` (stereo not drawn), in [7], the pKa was 4.9. Also, the half-inhibitory concentration (IC50) was 10 µM in data set [3] and 10000 µM in data set [8]. In addition, the ED50 in [2] (setting [22]) was > 25 mg/kg; in data set [9], >0.0001 M/kg.

In the case of `COc1cc2c(cc1OC)C1(CC2)NC(=O)NC1=O` (stereo not drawn), the IC50 in [3] is 10 µM. For the same compound, the ED50 in data set [2] (setting [22]) was found to be 10 mg/kg.

The compound `COc1ccc2c(c1)C1(CCO2)NC(=O)NC1=O` (stereo not drawn) had a half-maximal inhibitory concentration (IC50) in [3] of 10 µM. For the same compound, in data set [2] (setting [22]), the ED50 was > 2.5 mg/kg.

Consider `Cc1cc(Cl)cc2c1OCCC2C(=O)O` (stereo not drawn), for which, in [3], the midpoint of inhibition, the IC50, lay at 10 µM.

`O=C1NC(=O)[C@]2(CCSc3ccc(F)cc32)N1` yielded an IC50 in [3] of 10 µM.

In [10], `O=C1NC(=O)C2(CCc3ccccc32)N1` (stereo not drawn) returned a 50% inhibitory concentration (IC50) of 100 µM. The ED50 in data set [2] (setting [22]) and in [11] was 5 mg/kg each time.

Compound `O=C1NC(=O)C2(CCSc3ccccc32)N1` (stereo not drawn) returned an IC50 in data set [4] of 10 µM. The compound also came in with an ED50 in data set [12] of 5 mg/kg.

In turn, `O=C1NC(=O)C2(CC[S+]([O-])c3ccc(F)cc32)N1` (stereo not drawn) showed a 50% inhibitory concentration (IC50) in [1] of 1 µM. Also, in [2] (setting [22]), the ED50 was > 1.5 mg/kg.

Turning to `O=C1NC(=O)C(N2C(=O)c3cccc4cccc(c34)C2=O)N1` (stereo not drawn), the pKa in data set [7] amounted to 9.5. Moreover, the IC50 was 8 µM in [13] and ~10 µM in [14].

The compound `COc1ccc2c(c1)C1(CCC2)NC(=O)NC1=O` (stereo not drawn) yielded an IC50 in data set [4] of 100 µM. The same compound registered an ED50 in data set [11] of 10 mg/kg.

As for `CN1C(=O)N(C)[C@@]2(CCOc3ccc(F)cc32)C1=O`, in data set [13], the concentration for half-maximal inhibition (IC50) is > 100 µM. Further, the ED50 in [2] (setting [22]) is < 10 mg/kg.

As to `C[C@@H]1O[C@@H](Oc2c(-c3ccc(O)c(O)c3)oc3cc(O)cc(O)c3c2=O)[C@H](O)[C@H](O)[C@H]1O` [QUERCITRIN], the IC50 in [15] was ~0.1 µM; in data set [3] it was 10 µM. The ED50 in data set [2] (setting [22]) is > 40 mg/kg.

In [3], `O=C1NC(=O)C2(CCS(=O)(=O)c3ccccc32)N1` (stereo not drawn) showed a half-inhibitory concentration (IC50) of 10 µM. The ED50 in data set [2] (setting [22]) came out at 20 mg/kg.

`O=C(O)CN1C(=O)c2cccc3cccc(c23)C1=O` [ALRESTATIN] showed a pKa in data set [7] of 4.8. For the same compound, the IC50 in [3] is 10 µM; in [14], 1000 µM. Besides, the results for the ED50 in data set [16] and in data set [9] were 250 mg/kg and 0.001 M/kg, respectively.

`COc1ccc2c(c1)CCCC21NC(=O)NC1=O` (stereo not drawn) came in with an IC50 in data set [17] of 100 µM. Moreover, the ED50 in data set [2] (setting [22]) is > 25 mg/kg.

`O=C1NC(=O)C2(CCSc3ccc(F)cc32)N1` (stereo not drawn) returned an IC50 in data set [1] of 1 µM. Moreover, the ED50 in [2] (setting [22]) was 1.5 mg/kg.

Take `O=C1NC(=O)[C@@]2(CCOc3ccc(F)cc32)N1` (stereo in doubt; 115) [SORBINIL]: in data set [7], the pKa worked out at 8.7. For the same compound, the concentration for half-maximal inhibition (IC50) in [14] came to 1 µM. Besides, the ED50 in [2] was found to be 0.25 mg/kg; in [9] it was 1e-05 M/kg.

`O=C1NC(=O)C2(CCSc3ccc(Br)cc32)N1` (stereo not drawn) returned an IC50 in data set [1] of 1 µM. Also, the ED50 in [2] (setting [22]) is 2.5 mg/kg.

`O=C1NC(=O)C2(CCOc3c2ccc2ncccc32)N1` (stereo not drawn) displayed a half-inhibitory concentration (IC50) in data set [1] of 1 µM. Besides, the ED50 in data set [18] came to 1.5 mg/kg.

On to `O=C1NC(=O)C2(CCOc3c2cc(Cl)c2ccccc32)N1` (stereo not drawn), for which the IC50 in [4] was < 0.1 µM. Besides, the ED50 in data set [19] worked out at 1.5 mg/kg.

With `O=C1NC(=O)C2(CCCc3ccccc32)N1` (stereo not drawn), the half-maximal inhibitory concentration (IC50) in [10] turned out to be 100 µM. The ED50 in data set [11] came out at 10 mg/kg.

`O=C1NC(=O)[C@@]2(CCOc3ccc(Cl)cc32)O1`: the pKa in data set [7] was 5.6. The IC50 in data set [4] was 0.1 µM; in data set [14], 10 µM. Also, the ED50 in data set [2] (setting [22]) was determined as 2.5 mg/kg; in data set [9], 1e-05 M/kg.

Consider `CN1C(=O)N[C@]2(CCOc3ccc(F)cc32)C1=O`, for which the IC50 in data set [13] is > 100 µM. For the same compound, the ED50 in data set [2] (setting [22]) is < 10 mg/kg.

Regarding `O=C1NC(=O)C2(CCS(=O)(=O)c3ccc(F)cc32)N1` (stereo not drawn), the concentration for half-maximal inhibition (IC50) in data set [1] is 1 µM. For the same compound, in data set [2] (setting [22]), the ED50 amounted to 2.5 mg/kg.

Turning to `O=C1NC(=O)C2(CCOc3ccc(Br)cc32)N1` (stereo not drawn), half-maximal inhibition in data set [1] (IC50) required 1 µM. Moreover, the ED50 in [2] (setting [22]) is < 1.5 mg/kg.

In the case of `CN1C(=O)NC(=O)[C@]12CCOc1ccc(F)cc12`, half-maximal inhibition in data set [13] (IC50) required 100 µM. In addition, the ED50 in data set [2] (setting [22]) was < 10 mg/kg.

On to `COc1ccc(F)c2c1CCCC21NC(=O)NC1=O` (stereo not drawn), for which, in [4], the IC50 is > 100 µM. Also, in data set [5], the ED50 is > 25 mg/kg.

For the compound `O=C1NC(=O)C2(CCn3c(=O)ccc4cccc2c43)N1` (stereo not drawn), half-maximal inhibition in data set [1] (IC50) was put at 1 µM. For the same compound, the ED50 in [20] came to 2.5 mg/kg.

Regarding `O=c1cnn(Cc2ccccc2)c(=O)[nH]1`, the IC50 in [4] was determined as 10 µM. This compound also displayed an ED50 in data set [21] of 25 mg/kg.
